According to the OligoGym collection:
Several values for one entry are separate records, joined by “and”; a condition that tells them apart may be missing. Identical values can stand only once. After the bases stand the sugars from the 5' end (letter, count) and the backbone: PS all phosphorothioate, else s phosphorothioate and o phosphodiester by linkage. Methylation of C is not given here. k = constrained ethyl (cEt); d = 2'-deoxy (DNA)

These sequences were tested against MALAT1. Details: ASO, A431, 0.005 µM.
With TCATATTTTAAACGGG (sugars k3 d10 k3, PS) the target mRNA inhibition was 23%.
GACTAAAGGCTTCAGT (sugars k3 d10 k3, PS) showed a target mRNA inhibition of 15%.
Work on GACGGTTGAGAAGTGG (sugars k3 d10 k3, PS) yielded a target mRNA inhibition of 25%.
Work on AAGATGCTAGCTTGGC (sugars k3 d10 k3, PS) yielded a target mRNA inhibition of 24%.
AAAGAGTAACTACCAG (sugars k3 d10 k3, PS) showed a target mRNA inhibition of 22%.
In the case of TCCGCCGCCTCTTAAA (sugars k3 d10 k3, PS), the target mRNA inhibition is reported as 26%.
ACTCCAAGAACTAGCA (sugars k3 d10 k3, PS) gave a target mRNA inhibition of 11%.
Sequence ATCCTGAATGGCTTCA (sugars k3 d10 k3, PS) has a target mRNA inhibition of 0%.
CCGCTAAGATGCTAGC (sugars k3 d10 k3, PS) gave a target mRNA inhibition of 20%.
GTGTAAAACATTGCCT (sugars k3 d10 k3, PS) showed a target mRNA inhibition of 0%.
With ACGAACTGCTGCTTGC (sugars k3 d10 k3, PS) the target mRNA inhibition was 66% and 49% and 50%.
CCTTCTATTGGTATTA (sugars k3 d10 k3, PS) showed a target mRNA inhibition of 28%.
Sequence CTCTAAGAGACATTCA (sugars k3 d10 k3, PS) has a target mRNA inhibition of 23%.
CTTGACCTTAGGATAA (sugars k3 d10 k3, PS) showed a target mRNA inhibition of 44%.
Sequence ACCTGGAATGGCCAGC (sugars k3 d10 k3, PS) has a target mRNA inhibition of 21%.
TCTGATCATAATCTCC (sugars k3 d10 k3, PS) gave a target mRNA inhibition of 39%.
For CACTTTAGAGGCTTTT (sugars k3 d10 k3, PS), the target mRNA inhibition was 42%.
With TATTCTTTTCTTCGCC (sugars k3 d10 k3, PS) the target mRNA inhibition was 49%.
ATCCTACCACTCCCAA (sugars k3 d10 k3, PS) gave a target mRNA inhibition of 34%.
In the case of AGTATTACTCTAATCA (sugars k3 d10 k3, PS), the target mRNA inhibition is reported as 23%.
For TGAAGGATGAAATGCC (sugars k3 d10 k3, PS), the target mRNA inhibition was 29%.
Sequence CTGAACCGGAGCAGGA (sugars k3 d10 k3, PS) has a target mRNA inhibition of -13%.
ACCTTAGGATAATAGC (sugars k3 d10 k3, PS) was tested, and the target mRNA inhibition was 39%.
Sequence GATTCATGAGTATAAG (sugars k3 d10 k3, PS) has a target mRNA inhibition of 50%.
For CACTCCCAATTAATCT (sugars k3 d10 k3, PS), the target mRNA inhibition was 8%.
TAGTTCAACCCACCAA (sugars k3 d10 k3, PS) showed a target mRNA inhibition of -14%.
AGATTCCGTAACTTTA (sugars k3 d10 k3, PS) was tested, and the target mRNA inhibition was 78% and 92%.
Work on CTATCTTCACCACGAA (sugars k3 d10 k3, PS) yielded a target mRNA inhibition of 40%.
Sequence CTTTACAGAAGTCTCG (sugars k3 d10 k3, PS) has a target mRNA inhibition of 22%.
Work on CCAACCACTCGCTTTC (sugars k3 d10 k3, PS) yielded a target mRNA inhibition of 26%.
For AGAACTAGCACCTGCA (sugars k3 d10 k3, PS), the target mRNA inhibition was 15%.
Work on AAGCCAAGCCGCCTGC (sugars k3 d10 k3, PS) yielded a target mRNA inhibition of 29%.
Work on CACTTGATCCCAACTC (sugars k3 d10 k3, PS) yielded a target mRNA inhibition of 44%.
For AGAACTGCTCTAGTTT (sugars k3 d10 k3, PS), the target mRNA inhibition was -6%.
AACTAAATCATTGGGA (sugars k3 d10 k3, PS) was tested, and the target mRNA inhibition was -1%.
CTCAGTACGAAACTCC (sugars k3 d10 k3, PS) was tested, and the target mRNA inhibition was 30%.
TACACCTTGAGTCATT (sugars k3 d10 k3, PS) showed a target mRNA inhibition of 38%.
Work on ATGCACTAAAGATCAC (sugars k3 d10 k3, PS) yielded a target mRNA inhibition of 34%.
TCATCAAACACTGGTT (sugars k3 d10 k3, PS) was tested, and the target mRNA inhibition was 36%.
AAGGATCCAAGCTACT (sugars k3 d10 k3, PS) was tested, and the target mRNA inhibition was 8%.
Work on AGACGGAGAACAACTC (sugars k3 d10 k3, PS) yielded a target mRNA inhibition of -14%.
In the case of CTACATTTACAAAACG (sugars k3 d10 k3, PS), the target mRNA inhibition is reported as 29%.
Work on ACCACAACAATTTAGA (sugars k3 d10 k3, PS) yielded a target mRNA inhibition of -10%.
GAGGCTGACACTTCTC (sugars k3 d10 k3, PS) gave a target mRNA inhibition of -10%.
TTTAACTTCCCCCAGC (sugars k3 d10 k3, PS) showed a target mRNA inhibition of -2%.
Sequence TAAACCTGTGGTGGTC (sugars k3 d10 k3, PS) has a target mRNA inhibition of 30%.
With CGAAGAGATACCTGTC (sugars k3 d10 k3, PS) the target mRNA inhibition was 23%.
With ATAACAAGTTTAAGGG (sugars k3 d10 k3, PS) the target mRNA inhibition was 41%.
Work on TCAACTGGGAATACTC (sugars k3 d10 k3, PS) yielded a target mRNA inhibition of 17%.
Work on TACTTGTCTTAGCTTG (sugars k3 d10 k3, PS) yielded a target mRNA inhibition of 51%.
In the case of TGGTTAGGTATGAGCT (sugars k3 d10 k3, PS), the target mRNA inhibition is reported as 4%.
With CTGCCTCAATGCCTAC (sugars k3 d10 k3, PS) the target mRNA inhibition was 44%.
For AGCAGAAGCCCCTGCG (sugars k3 d10 k3, PS), the target mRNA inhibition was -1%.
In the case of ATTACTCTTGATCTTG (sugars k3 d10 k3, PS), the target mRNA inhibition is reported as 71% and 56%.
With CACCAATCCCAACCGT (sugars k3 d10 k3, PS) the target mRNA inhibition was 5%.
TGACCTTAGGATAATA (sugars k3 d10 k3, PS) gave a target mRNA inhibition of 62%.
CCCATAATTGTAGTTA (sugars k3 d10 k3, PS) gave a target mRNA inhibition of 45%.
Sequence GCAGAGTTTGAGTGGT (sugars k3 d10 k3, PS) has a target mRNA inhibition of -9%.
For TCCCTATATAAGGTCA (sugars k3 d10 k3, PS), the target mRNA inhibition was 5%.
Work on GAAGAGATACCTGTCT (sugars k3 d10 k3, PS) yielded a target mRNA inhibition of -22%.
Sequence GCATTCCCACCCAAAA (sugars k3 d10 k3, PS) has a target mRNA inhibition of 34%.
ACAGATTAGTAGTCAA (sugars k3 d10 k3, PS) showed a target mRNA inhibition of 9%.
With CTTCGGTTAAAAATAG (sugars k3 d10 k3, PS) the target mRNA inhibition was 4%.
ACTCGCATCACCGGAA (sugars k3 d10 k3, PS) was tested, and the target mRNA inhibition was 15%.
Sequence ACCGTTTTTCAGCTTC (sugars k3 d10 k3, PS) has a target mRNA inhibition of -30%.
With TAACGAAGAGATACCT (sugars k3 d10 k3, PS) the target mRNA inhibition was 22%.
In the case of AGTAACCTATTGACTA (sugars k3 d10 k3, PS), the target mRNA inhibition is reported as -16%.
Work on ATTTAAGGCCTTCCAA (sugars k3 d10 k3, PS) yielded a target mRNA inhibition of 30%.
TGCTGTTACCTCCCAC (sugars k3 d10 k3, PS) showed a target mRNA inhibition of 14%.
Work on TAGCTTCCTTCACCAA (sugars k3 d10 k3, PS) yielded a target mRNA inhibition of -1%.
For TAAAGTCTGATTAAGG (sugars k3 d10 k3, PS), the target mRNA inhibition was 4%.
For ATAGAGCTACTTAGCT (sugars k3 d10 k3, PS), the target mRNA inhibition was 19%.
Work on ATAATAGAGCTACTTA (sugars k3 d10 k3, PS) yielded a target mRNA inhibition of 19%.
In the case of TAATACCCTTCTGTTA (sugars k3 d10 k3, PS), the target mRNA inhibition is reported as 19%.
In the case of AGAGTAACTACCAGCC (sugars k3 d10 k3, PS), the target mRNA inhibition is reported as 55% and 76%.
In the case of AGGTATGACATATAAT (sugars k3 d10 k3, PS), the target mRNA inhibition is reported as 35%.
In the case of TCCAGGATTAATGTAG (sugars k3 d10 k3, PS), the target mRNA inhibition is reported as 48%.
Sequence ATGCATTCTAATAGCA (sugars k3 d10 k3, PS) has a target mRNA inhibition of -1%.
Work on TTCAGGATCATTAAGC (sugars k3 d10 k3, PS) yielded a target mRNA inhibition of 18%.
TCCTGCATGTAAGAAT (sugars k3 d10 k3, PS) showed a target mRNA inhibition of 15%.
AATTACTCTTGATCTT (sugars k3 d10 k3, PS) was tested, and the target mRNA inhibition was 51%.
CCAAGCTACTGGCTGC (sugars k3 d10 k3, PS) gave a target mRNA inhibition of 23%.
ACTAAGCTACTATATT (sugars k3 d10 k3, PS) was tested, and the target mRNA inhibition was 39%.
In the case of TCTTCTAAATTGGTTC (sugars k3 d10 k3, PS), the target mRNA inhibition is reported as 49%.
With ACACTTCTCTTGACCT (sugars k3 d10 k3, PS) the target mRNA inhibition was 60% and 44% and 50%.
For ATCTGTTAACAGCTGC (sugars k3 d10 k3, PS), the target mRNA inhibition was 71% and 76%.
For CCCACCAAAGACCTCG (sugars k3 d10 k3, PS), the target mRNA inhibition was 31%.
For ATATTGCCGACCTCAC (sugars k3 d10 k3, PS), the target mRNA inhibition was 26%.
CCAACTAATTGCCAAT (sugars k3 d10 k3, PS) showed a target mRNA inhibition of 40%.
TACACTCACTAGAACA (sugars k3 d10 k3, PS) showed a target mRNA inhibition of 3%.
Work on GGACTTTCTCCCCCAA (sugars k3 d10 k3, PS) yielded a target mRNA inhibition of -5%.
Sequence TCAGGGTGAGGAAGTA (sugars k3 d10 k3, PS) has a target mRNA inhibition of 50%.
AACAGTACTGCATTTA (sugars k3 d10 k3, PS) gave a target mRNA inhibition of 36%.
For ACGAAACATTGGCACA (sugars k3 d10 k3, PS), the target mRNA inhibition was 62% and 40%.
CTACTGAAGAGCATTG (sugars k3 d10 k3, PS) was tested, and the target mRNA inhibition was 22%.
Sequence TAAGATAGCAGCACAA (sugars k3 d10 k3, PS) has a target mRNA inhibition of -3%.
With TGGGAGTTACTTGCCA (sugars k3 d10 k3, PS) the target mRNA inhibition was 19%.
Sequence ATTTTAAACGGGTCAT (sugars k3 d10 k3, PS) has a target mRNA inhibition of 7%.
AAGAGTAACTACCAGC (sugars k3 d10 k3, PS) gave a target mRNA inhibition of 6%.
For TAATCATACTCCAGTC (sugars k3 d10 k3, PS), the target mRNA inhibition was -3%.
In the case of AATCACCTACAACTTT (sugars k3 d10 k3, PS), the target mRNA inhibition is reported as 26%.
Work on TCCTAGCTTCATCAAA (sugars k3 d10 k3, PS) yielded a target mRNA inhibition of 7%.
For TATGGAACTTGAATGC (sugars k3 d10 k3, PS), the target mRNA inhibition was 24%.
For TGTGTTATGCCTGGTT (sugars k3 d10 k3, PS), the target mRNA inhibition was 1%.
CTGTCTGAGGCAAACG (sugars k3 d10 k3, PS) gave a target mRNA inhibition of 37%.
CAGCACGGGCTGTCTG (sugars k3 d10 k3, PS) gave a target mRNA inhibition of -33%.
TAAAGAGTGTTCGCAG (sugars k3 d10 k3, PS) was tested, and the target mRNA inhibition was 51%.
For CGTTACGAAAGTCCTT (sugars k3 d10 k3, PS), the target mRNA inhibition was 25%.
AACCTTCATGACCCTA (sugars k3 d10 k3, PS) was tested, and the target mRNA inhibition was 20%.
With TTCAGACAAGATTCAT (sugars k3 d10 k3, PS) the target mRNA inhibition was 51% and 37%.
CTGCAGTTTCTATAGT (sugars k3 d10 k3, PS) showed a target mRNA inhibition of 22%.
In the case of CTTTAAGCCTTCGGTG (sugars k3 d10 k3, PS), the target mRNA inhibition is reported as -3%.
In the case of CAGGAGTGCCAACCAC (sugars k3 d10 k3, PS), the target mRNA inhibition is reported as -2%.
Work on GACCTCGACACCATCG (sugars k3 d10 k3, PS) yielded a target mRNA inhibition of 44%.
